What all share (type): cell-based
Test [1] deals with E. faecalis ATCC 29212. In words: double infection imaging in MAC chip, antibiotic susceptibility. The conditions noted are these: gentamicin 32 μg/mL, erythromycin 8 μg/mL; 3 h incubation; 2% agarose. The procedure: (§1) The experimental conditions are as follows: • Strains • E. coli ATCC 25922 (rod-shaped strain) • E. faecalis ATCC 29212 (spherical strain) • Antibiotics • Gentamicin (concentration: 32 μg/mL)
(§2) […] At this time, the coexistence of the rod-shaped bacteria and the spherical bacteria was confirmed. It could also be confirmed whether double infection with the bacteria occurred.

Test [2] has as its system E. coli ATCC 25922. Described as above. Particulars: gentamicin 32 μg/mL, erythromycin 8 μg/mL; 3 h incubation; 2% agarose. The procedure:
as §1, §2

Test [3] has as its system E. faecalis strain. In words: antibiotic susceptibility testing (MIC) using the MAC chip. Particulars: agarose, 37° C., 4-h incubation. The procedure:
For this experiment, an E. faecalis solution was homogenized with liquid agarose and was injected into the chip. The agarose was gelled at room temperature. Thereafter, liquid penicillin as an antibiotic was injected into the well spaces. The chip was then incubated at an incubator at 37° C. and the results were observed after 4-h incubation.
The MIC of penicillin (2 μg/ml) could be obtained in 4 hours. In contrast, according to micro-dilution testing (MDT), a much longer time (18 hours) was consumed to obtain the MIC of penicillin.

The text below walks through data of US10894941B2, “Microfluidic multi-well-based cell culture testing device” (QUANTA MATRIX CO,. LTD., priority 2013, dated 2021).

Broadly, the MIC is the smallest concentration in the dilution series that meets the test's criterion for growth inhibition. A lower MIC goes with greater potency.

`CC[C@H]1OC(=O)[C@H](C)[C@@H](O[C@H]2C[C@@](C)(OC)[C@@H](O)[C@H](C)O2)[C@H](C)[C@@H](O[C@@H]2O[C@H](C)C[C@H](N(C)C)[C@H]2O)[C@](C)(O)C[C@@H](C)C(=O)[C@H](C)[C@@H](O)[C@]1(C)O` [Erythromycin]: the susceptibility result in test [1] and in test [2] was “Susceptible to E. faecalis ATCC 29212 only” in each case. For the compound Gentamicin, the susceptibility result in test [1] and in test [2] was “MICs are in the susceptible range for both strains” in each case. Regarding penicillin, the MIC in test [3] came to 2 µg/mL.
